Test results reported in patent publication US12061201B2, “Fluorescent probes for the visualization of FtsZ in gram-positive and gram-negative bacterial pathogens” (Rutgers, The State University of New Jersey, priority 2019, dated 2024).
“Also recorded” adds a separate entry of the source. Read-outs that look alike come from different tables or passages of the source.

How the values were obtained:
[1] = target: T1, S. aureus FtsZ (SaFtsZ) (Staphylococcus aureus, UniProt P0A031); test: Fluorescence anisotropy binding of BOFP to FtsZ; conditions: 0.1 μM BOFP, 10 μM SaFtsZ, 37° C.
T1 sequence (P0A031 1-390): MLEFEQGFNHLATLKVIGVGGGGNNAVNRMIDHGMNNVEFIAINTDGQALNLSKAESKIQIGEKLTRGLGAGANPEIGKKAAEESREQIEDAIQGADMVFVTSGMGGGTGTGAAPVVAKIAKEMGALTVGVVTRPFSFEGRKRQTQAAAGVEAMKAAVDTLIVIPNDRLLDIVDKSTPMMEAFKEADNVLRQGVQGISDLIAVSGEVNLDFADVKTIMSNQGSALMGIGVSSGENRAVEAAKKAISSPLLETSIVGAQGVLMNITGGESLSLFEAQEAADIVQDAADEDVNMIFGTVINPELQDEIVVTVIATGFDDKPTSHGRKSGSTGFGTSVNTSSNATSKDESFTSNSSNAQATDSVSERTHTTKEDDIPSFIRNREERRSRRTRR

[2] = target: T1, S. aureus FtsZ (SaFtsZ); test: Fluorescence anisotropy binding of BOFP to FtsZ
Description: Fluorescence anisotropy assay for determining the affinities and thermodynamics associated with the binding of BOFP to FtsZ proteins. Fluorescence anisotropy experiments were performed using an AVIV model ATF105 spectrofluorometer at 15, 25, or 37° C. In these experiments, bandwidths were set to 4 nm in both the excitation and emission directions, with the excitation and emission wavelengths being set at 488 nm and 510 nm, respectively. BOFP (0.1 μM) was titrated with increasing concentrations (ranging from 0 to 12 μM) of FtsZ in 120 μL of buffer containing 50 mM Tris-HCl (pH 7.6) and 50 mM KCl. After each protein addition, the samples were equilibrated for 3 minutes, whereupon the fluorescence anisotropy was measured.
[formula] In this equation, r0 is the anisotropy of the protein-free compound, r∞ is the anisotropy of the compound in the presence of an infinite concentration of FtsZ, [C]tot is the total concentration of the compound, and [P]tot is the total concentration of protein with each addition. These analyses yielded the equilibrium dissociation constant (Kd) for each binding reaction.
The binding free energy (ΔG) at temperature T was derived from the corresponding Kd value determined at T using the following relationship:
[formula] The binding enthalpy (ΔH) and entropy (ΔS) were derived from linear fits of the ln(1/Kd) vs. 1/T plots shown in FIGS. 3f and 5e using the following relationship:
A quartz ultra-micro cell (Hellma) with a 2×5 mm aperture and a 15 mm center height was used for all measurements. The pathlengths in the excitation and emissions directions were 1 and 0.2 cm, respectively. All steady-state anisotropy experiments were conducted in at least triplicate, with the reported anisotropies reflecting the average values.

[3] = test system: FtsZ in K. pneumoniae ATCC 13883 cells; test: Fluorescence microscopy FtsZ visualization in live cells; format: cell-based
Description: (§1) Fluorescence microscopy assay for visualizing FtsZ and monitoring cell division in live Gram-positive and Gram-negative bacterial cells using BOFP. All fluorescence microscopy experiments were conducted using an Olympus BX50 microscope equipped with an X-cite Exacte 200W mercury lamp, a 100× Olympus UPLSAPO oil immersion objective (1.40 aperture), and a Chroma ET-EGFP (FITC/Cy2) filter. Images were captured using a QImaging Retiga R3 charge-coupled device (CCD) camera and the Ocular-Version 2.0 software package (QImaging).
(§2) For visualizing FtsZ in Gram-negative bacteria using BOFP, E. coli ATCC 25922, K. pneumoniae ATCC 13883, P. aeruginosa ATCC 27853, and A. baumannii ATCC 19606 were grown to log-phase in CAMH broth. For each Gram-negative bacterial strain, a total of 1 mL of cell culture was centrifuged at 15,000×g for 1 minute and washed twice with 1 mL of Tris-buffered saline (TBS) composed of 50 mM Tris-HCl pH 7.6 and 150 mM NaCl. […] The resuspended cells were then incubated in the dark for 5 minutes at room temperature, centrifuged at 15,000×g for 1 minute, washed twice with 1 mL of TBS, and subsequently resuspended in 200 μL of TBS. This final cell suspension was then prepared for microscopy as described above for the Gram-positive bacterial strains.

[4] = target: T2, FtsZ in E. coli ATCC 25922 cells (Escherichia coli, UniProt P0A9A6); test: as above; format: cell-based; conditions: 1 μg/mL BOFP for 5 minutes, no pentamidine
T2 construct: endogenous in cells; host or cells: E. coli ATCC 25922
Description: as §1, §2

[5] = test system: FtsZ in A. baumannii ATCC 19606 cells; test: as above; format: cell-based; conditions: 1 μg/mL BOFP for 5 minutes, no pentamidine
Description: as §1, §2

[6] = target: T3, FtsZ in P. aeruginosa ATCC 27853 cells (Pseudomonas aeruginosa, UniProt P47204); test: as above; format: cell-based; conditions: 1 μg/mL BOFP for 5 minutes, no pentamidine
T3 construct: endogenous in cells; host or cells: P. aeruginosa ATCC 27853
T3 sequence (P47204 1-394): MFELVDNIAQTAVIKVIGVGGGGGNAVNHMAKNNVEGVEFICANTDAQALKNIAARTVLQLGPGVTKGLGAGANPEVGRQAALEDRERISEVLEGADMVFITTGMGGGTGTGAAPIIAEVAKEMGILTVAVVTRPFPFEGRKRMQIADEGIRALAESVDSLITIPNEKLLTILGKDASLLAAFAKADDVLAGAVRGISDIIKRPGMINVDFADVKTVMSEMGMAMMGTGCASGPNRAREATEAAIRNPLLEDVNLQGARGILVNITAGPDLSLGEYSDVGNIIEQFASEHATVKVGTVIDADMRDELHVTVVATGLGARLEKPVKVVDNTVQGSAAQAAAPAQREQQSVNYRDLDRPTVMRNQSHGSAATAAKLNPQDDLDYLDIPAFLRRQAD
Description: as §1, §2

[7] = SaFtsZ, linear fit of ln(1/Kd) vs. 1/T, Eq. 3

T2 sequence (P0A9A6 whole entry): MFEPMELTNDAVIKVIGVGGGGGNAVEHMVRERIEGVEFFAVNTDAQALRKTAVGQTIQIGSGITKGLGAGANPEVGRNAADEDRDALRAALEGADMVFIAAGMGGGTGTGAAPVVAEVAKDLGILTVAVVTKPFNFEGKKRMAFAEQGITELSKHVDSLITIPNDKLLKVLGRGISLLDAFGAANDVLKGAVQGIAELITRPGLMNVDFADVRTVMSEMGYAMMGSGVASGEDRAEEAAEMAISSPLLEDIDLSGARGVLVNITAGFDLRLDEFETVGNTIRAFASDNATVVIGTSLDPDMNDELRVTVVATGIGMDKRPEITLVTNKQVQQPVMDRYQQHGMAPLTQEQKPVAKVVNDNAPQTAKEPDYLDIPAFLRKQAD

Q: What does the source list for `CC1=CC(C)=[N+]2C1=Cc1ccc(CCC(=O)OCC(Oc3ccc(F)c(C(N)=O)c3F)c3nc(-c4ccc(C(F)(F)F)cc4)c(Br)o3)n1[B-]2(F)F` (stereo not drawn) [BOFP, 2-(5-bromo-4-(4-(trifluoromethyl)phenyl)-oxazol-2-yl)-2-(3-carbamoyl-2,4-difluorophenoxy)ethyl 3-(5,5-difluoro-7,9-dimethyl-5H-5λ^4,6λ^4-dipyrrolo[1,2-c:2′,1′-f][1,3,2]diazaborinin-3-yl)propanoate]?
A: effect of both GMPCPP and MgCl2 on the anisotropy of SaFtsZ-bound BOFP ([1]; GMPCPP 0.1 mM and MgCl2 10 mM): modest increase in the anisotropy; effect of GMPCPP alone or MgCl2 alone on the anisotropy of SaFtsZ-bound BOFP ([1]; GMPCPP 0.1 mM or MgCl2 10 mM): neither GMPCPP alone (at 0.1 mM) nor MgCl2 alone (at 10 mM) has a significant effect; also recorded: independent of either GTP or magnesium; Kd [2]: 0.88 to 3.14 µM; enthalpic contribution (ΔH) to the observed ΔG of binding ([2]; SaFtsZ): 100%; Kd ([2]; SaFtsZ, 15° C., 50 mM Tris-HCl (pH 7.6), 50 mM KCl, read-out: Kd −15° C.): 0.88 ± 0.08 µM; Kd ([2]; SaFtsZ, 25° C., 50 mM Tris-HCl (pH 7.6), 50 mM KCl, read-out: Kd −25° C.): 1.66 ± 0.12 µM; Kd ([2]; SaFtsZ, 37° C., 50 mM Tris-HCl (pH 7.6), 50 mM KCl, read-out: Kd −37° C.): 3.14 ± 0.13 µM; ΔG ([2]; SaFtsZ, T = 310K (37° C.), Eq. 2): -7.8 ± 0.1 kcal/mol; ΔH [2, 7]: -10.2 ± 0.3 kcal/mol; ΔS [2, 7]: −7.8 ± 1.0 cal/mol · K; FtsZ labeling in live cells without pentamidine ([3]; 1 μg/mL BOFP for 5 minutes, no pentamidine): little or no FtsZ labeling; FtsZ labeling (fluorescence staining) in live cells ([3]; 1 μg/mL BOFP with 3.5 mg/mL pentamidine isethionate, 5 minutes): bright fluorescence staining is visible both at midcell and along the cell periphery; FtsZ labeling in live cells without pentamidine [4]: little or no FtsZ labeling; FtsZ labeling in live cells without pentamidine [5]: little or no FtsZ labeling; FtsZ labeling in live cells without pentamidine [6]: little or no FtsZ labeling
